Measured values from patent US20240002326A1, “COMPOUNDS AND USE THEREOF IN METHODS OF TREATMENT” (The University of Queensland, priority 2016, published 2024).

How the values were obtained:
[1] = system: HepG2; experiment: Cytotoxicity assay (Alamar blue), HepG2; type: cell-based; details: HepG2, 24 h
[2] = system: SOX binding site consensus DNA; experiment: Direct DNA-binding assay (SPR), consensus DNA; details: biotinylated double-strand DNA on streptavidin chip
Description: Compounds were tested at a 1% v/v DMSO in HBS-EP buffer (10 mM HEPES, 150 mM NaCl, 3 mM EDTA, 0.005% v/v polysorbate 20, pH 7.4). The same buffer supplemented with 1% v/v DMSO was used as a mobile phase. DNA minor groove binder DAPI (4′,6-diamidino-2-phenylindole), DNA intercalator and minor groove binder actinomycin D, and DNA intercalator ethidium bromide were used as positive controls. Biotinylated (one tag per probe) double strand DNA probes were prepared using a standard annealing routine (5 min at 100° C., room temperature overnight and stored at −20° C.) of single strand anti-parallel DNA Probes purchased from Geneworks and were immobilized on CM5-SA streptavidin chips as per manufacturer's recommendations. […] All sample and control cycles were performed in triplicate. DMSO calibration was performed as per manufacturer's recommendations. After each injection, an extra flow system wash was performed with 50% v/v DMSO to avoid carryover. Experiments were run on a Biacore T200 (GE Healthcare, USA), with one flow cell kept as a reference.
From a molecular viewpoint, an inhibitor of SOX18-DNA binding could act either by interacting directly with the DNA, or the protein, or at the interface between protein and DNA. Binding of small molecules directly to the DNA, even though reported for other TFs (Leung et al., 2013), has the potential for unspecific DNA binding, leading to possible genotoxicity, mutagenicity, or carcinogenicity. For this reason, we developed a direct binding assays to determine whether the active compounds interact directly with DNA or protein. A surface plasmon resonance-based method was developed to analyse the binding of small molecules to biotinylated double stranded DNA immobilized on the surface of a streptavidin chip. The method measures the rate of binding (kon), dissociation (koff) and binding constant (KD), and was used to measure the binding to two different DNA sequences: SOX binding site consensus DNA, and scrambled DNA. Intercalating agents ethidium bromide and Actinomycin D, and the minor groove-binding agent 4′,6-diamino-2-phenylindole (DAPI) were used as positive controls for unselective DNA binding.

[3] = molecular target: ovine COX1 (Ovis aries (Sheep), UniProt P05979); experiment: COX1 enzymatic assay; type: biochemical; details: up to a concentration of 200 μM
Sequence of ovine COX1 (P05979 25-600): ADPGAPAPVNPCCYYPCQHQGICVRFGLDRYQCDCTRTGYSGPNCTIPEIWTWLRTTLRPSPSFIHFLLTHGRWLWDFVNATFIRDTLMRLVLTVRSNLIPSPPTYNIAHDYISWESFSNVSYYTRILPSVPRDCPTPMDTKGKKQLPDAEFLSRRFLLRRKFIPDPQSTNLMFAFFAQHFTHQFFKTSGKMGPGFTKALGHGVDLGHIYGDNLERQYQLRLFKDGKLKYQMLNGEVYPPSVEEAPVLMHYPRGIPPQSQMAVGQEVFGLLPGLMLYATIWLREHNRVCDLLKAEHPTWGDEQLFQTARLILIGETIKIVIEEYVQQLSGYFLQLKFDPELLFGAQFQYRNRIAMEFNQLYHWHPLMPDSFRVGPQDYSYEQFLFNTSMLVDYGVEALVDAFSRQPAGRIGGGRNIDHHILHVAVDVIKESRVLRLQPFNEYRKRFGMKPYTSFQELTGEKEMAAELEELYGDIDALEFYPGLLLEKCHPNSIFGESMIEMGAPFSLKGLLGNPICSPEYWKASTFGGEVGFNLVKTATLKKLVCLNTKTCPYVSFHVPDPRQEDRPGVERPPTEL
Description: (§1) COX inhibition activity was measured using COX1 and COX2 inhibitor screening assay kits from Cayman Chemical Company (Ref #701090 and 701080). All compounds were tested in quadruplicate at a single 200 μM concentration in 2% v/v final DMSO. Compounds were preincubated with ovine COX1 or human COX2 at 37° C. for 10 min before incubation with COX substrate arachidonic acid for another 3 min. Reactions were stopped by addition of concentrated hydrochloric acid. Prostanoid standard curve was prepared and enzyme immunoassay performed as per manufacturer's description. […] Prostanoid standards values were plotted as logit (B/B0) versus log concentrations and fitted with linear regression using GraphPad Prism version 6.0. Standard curve linear fit was used to calculate each samples concentrations.

[4] = molecular target: human COX2 (Homo sapiens (Human), UniProt P35354); experiment: COX2 enzymatic assay; type: biochemical; details: up to a concentration of 200 μM
Sequence of human COX2 (P35354 18-604): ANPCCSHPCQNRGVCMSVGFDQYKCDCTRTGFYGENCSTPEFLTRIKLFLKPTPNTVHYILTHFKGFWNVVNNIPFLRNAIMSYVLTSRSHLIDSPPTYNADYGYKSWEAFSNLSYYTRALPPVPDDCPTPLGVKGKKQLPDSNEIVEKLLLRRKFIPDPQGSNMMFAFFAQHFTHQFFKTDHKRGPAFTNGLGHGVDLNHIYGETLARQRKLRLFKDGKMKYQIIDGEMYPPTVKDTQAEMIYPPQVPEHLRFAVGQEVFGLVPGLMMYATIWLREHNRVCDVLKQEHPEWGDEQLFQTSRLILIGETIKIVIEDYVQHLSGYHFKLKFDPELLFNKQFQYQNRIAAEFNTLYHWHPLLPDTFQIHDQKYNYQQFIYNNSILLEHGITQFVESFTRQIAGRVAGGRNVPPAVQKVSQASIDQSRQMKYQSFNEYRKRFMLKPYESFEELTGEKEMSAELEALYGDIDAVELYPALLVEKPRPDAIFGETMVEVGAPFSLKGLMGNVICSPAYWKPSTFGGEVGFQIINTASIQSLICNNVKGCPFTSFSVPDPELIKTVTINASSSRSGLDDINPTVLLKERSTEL
Description: as §1

[5] = molecular target: mouse SOX18-HMG (109aa) (Mus musculus (Mouse), UniProt P43680); experiment: Direct protein binding assay (thermal aggregation, static light scattering); details: 500 μM for Sm4 and Sm14, 1.5 mM for Sm5
Sequence of mouse SOX18-HMG (109aa) (P43680 69-177): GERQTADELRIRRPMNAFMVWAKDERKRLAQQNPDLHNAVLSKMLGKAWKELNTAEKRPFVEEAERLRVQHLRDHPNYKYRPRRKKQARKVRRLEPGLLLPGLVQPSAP

Row | binding to consensus DNA (SPR) [2] | increase in Tagg [5] | Structure (SMILES) | CC50 [1] | COX-1 inhibitory activity [3] | COX-2 inhibitory activity [4]
1 | – | – | CCN(CC)C(=O)c1c(O)cc(O)cc1CCc1ccc2ccccc2c1 [Sm26, N,N,diethyl-2,4-hydroxy-6-(2-(naphthalen-2-yl)ethyl)benzamide] | 16.8 µM | – | –
2 | do not bind | more than 3 °C | O=C(O)c1c(O)cccc1COCCc1ccccc1 [Sm5] | – | None of the SOX18 inhibitor display any COX-1 or COX-2 inhibitory activity | None of the SOX18 inhibitor display any COX-1 or COX-2 inhibitory activity
